In PMC9900903 (bioRxiv, 2023):
Like-named read-outs stand apart in the source and are kept apart here.

Columns and labels:
[1] = target: T1, Aap lectin domain (Staphylococcus epidermidis, UniProt Q5HKE8); assay: ITC; assay type: binding; conditions: pH 7.2, 50 mM phosphate, 150 mM NaCl, 25 °C
T1 sequence (Q5HKE8 351-605): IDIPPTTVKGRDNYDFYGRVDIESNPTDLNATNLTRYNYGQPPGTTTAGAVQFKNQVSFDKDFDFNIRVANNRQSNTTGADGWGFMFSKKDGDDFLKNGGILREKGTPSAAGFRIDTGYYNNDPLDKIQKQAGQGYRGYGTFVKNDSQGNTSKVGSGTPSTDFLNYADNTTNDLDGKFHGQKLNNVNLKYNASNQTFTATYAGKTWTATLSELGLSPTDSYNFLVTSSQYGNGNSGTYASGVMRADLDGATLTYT

[2] = target: T2, SasG lectin domain (Staphylococcus aureus, UniProt Q2G2B2); assay: ITC; assay type: binding; conditions: pH 7.2, 50 mM phosphate, 150 mM NaCl, 25 °C
T2 sequence (Q2G2B2 163-419): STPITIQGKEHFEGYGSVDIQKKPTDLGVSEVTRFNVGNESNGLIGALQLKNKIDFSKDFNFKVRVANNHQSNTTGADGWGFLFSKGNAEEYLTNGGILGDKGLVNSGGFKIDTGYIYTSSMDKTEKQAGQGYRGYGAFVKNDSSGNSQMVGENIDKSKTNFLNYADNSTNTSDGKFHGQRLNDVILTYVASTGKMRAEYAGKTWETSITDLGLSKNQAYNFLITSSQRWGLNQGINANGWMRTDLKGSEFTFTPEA

Kd ([1]; read-out: affinity) [µM]	Kd [1] [µM]	SMILES	ITC [2]
~130		CC(=O)N[C@H]1C(O)O[C@H](CO)[C@@H](O[C@@H]2O[C@H](CO)[C@H](O)[C@H](O)[C@H]2O)[C@@H]1O (stereo partly drawn) [N-acetyllactosamine]	We confirmed that SasG lectin is able to bind N-acetyllactosamine by ITC
	13	CC(=O)N[C@H]1[C@H]([C@H](O)[C@H](O)CO)O[C@@](O[C@H]2[C@@H](O)[C@@H](CO)O[C@@H](O[C@H]3[C@H](O)[C@@H](NC(C)=O)C(O)O[C@@H]3CO)[C@@H]2O)(C(=O)O)C[C@@H]1O (stereo partly drawn) [3'-sialyl-N-acetyllactosamine]	
